Several values for one entry are separate records, joined by “and”; a condition that tells them apart may be missing. Equal values may be shown once. Inconclusive results and toxic doses are left out. How the source made its calls: active means survival T/C of 150% or more; inactive means T/C below 125% in these data.
Test system: CD2F1 mice, L1210 leukemia ip, survival T/C
Experiment: NCI In Vivo Anticancer Drug Screen. Data for tumor model L1210 Leukemia (intraperitoneal) in CD2F1 (CDF1) mice
Conditions: higher = longer survival
Summary of the method: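 In this screen, transplantable tumors were grown in mice given either the compound or its vehicle. Results were expressed as the treated measurement relative to the control measurement.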

[1] = endpoint: median survival time, dose: 25.0 mg/kg/injection, schedule: Q01DX005 (ip), vehicle: saline with Tween-80
[2] = endpoint: median survival time, dose: 50.0 mg/kg/injection, schedule: Q01DX005 (ip), vehicle: saline with Tween-80
[3] = endpoint: median survival time, dose: 100.0 mg/kg/injection, schedule: Q01DX005 (ip), vehicle: saline with Tween-80
[4] = endpoint: median survival time, dose: 200.0 mg/kg/injection, schedule: Q01DX005 (ip), vehicle: saline with Tween-80
[5] = endpoint: mean survival time, dose: 100.0 mg/kg/injection, schedule: Q04DX003 (ip), vehicle: saline with Tween-80
[6] = endpoint: mean survival time, dose: 200.0 mg/kg/injection, schedule: Q04DX003 (ip), vehicle: saline with Tween-80
[7] = endpoint: mean survival time, dose: 400.0 mg/kg/injection, schedule: Q04DX003 (ip), vehicle: saline with Tween-80
[8] = endpoint: mean survival time, dose: 100.0 mg/kg/injection, schedule: Q04DX002 (ip), vehicle: saline with Tween-80
[9] = endpoint: mean survival time, dose: 12.5 mg/kg/injection, schedule: Q01DX009 (ip), vehicle: other
[10] = endpoint: mean survival time, dose: 25.0 mg/kg/injection, schedule: Q01DX009 (ip), vehicle: other

Measured: T/C

NC(=O)c1[nH]cnc1O
inactive: [1] 109 % of control and 110 % of control | [2] 113 % of control and 112 % of control | [3] 116 % of control and 119 % of control | endpoint: median survival time, dose: 144.0 mg/kg/injection, schedule: Q01DX005 (ip), vehicle: saline with Tween-80 117 % of control | [4] 118 % of control and 120 % of control | endpoint: median survival time, dose: 400.0 mg/kg/injection, schedule: Q01DX005 (ip), vehicle: saline with Tween-80 120 % of control

CC(=O)C(C(C)=O)C(c1ccccn1)C(C(C)=O)C(C)=O
inactive: [5] 106 % of control | [6] 98 % of control | [7] 93 % of control

CN(C)N=Nc1ccc(N=Nc2ccc(N(CCO)CCO)cc2)cc1
inactive: endpoint: mean survival time, dose: 100.0 mg/kg/injection, schedule: Q01DX001 (ip), vehicle: saline 102 % of control | endpoint: mean survival time, dose: 200.0 mg/kg/injection, schedule: Q01DX001 (ip), vehicle: saline 93 % of control | endpoint: mean survival time, dose: 400.0 mg/kg/injection, schedule: Q01DX001 (ip), vehicle: saline 101 % of control

CCCCNC(=S)NNC(=O)Cn1cnc2c1c(=O)n(C)c(=O)n2C
inactive: endpoint: mean survival time, dose: 12.5 mg/kg/injection, schedule: Q01DX005 (ip), vehicle: distilled water + Tween-80 101 % of control | endpoint: mean survival time, dose: 25.0 mg/kg/injection, schedule: Q01DX005 (ip), vehicle: distilled water + Tween-80 101 % of control | endpoint: mean survival time, dose: 50.0 mg/kg/injection, schedule: Q01DX005 (ip), vehicle: distilled water + Tween-80 97 % of control | endpoint: mean survival time, dose: 100.0 mg/kg/injection, schedule: Q01DX005 (ip), vehicle: distilled water + Tween-80 97 % of control | endpoint: mean survival time, dose: 200.0 mg/kg/injection, schedule: Q01DX005 (ip), vehicle: distilled water + Tween-80 101 % of control

CC1=C(CCC(=O)O)C(=O)C(CCC(=O)O)C(C)(C)C1 (configuration not stated)
inactive: [8] 96 % of control | endpoint: mean survival time, dose: 200.0 mg/kg/injection, schedule: Q04DX002 (ip), vehicle: saline with Tween-80 100 % of control | endpoint: mean survival time, dose: 400.0 mg/kg/injection, schedule: Q04DX002 (ip), vehicle: saline with Tween-80 100 % of control

COc1ccc(C(O)C#N)cc1O (configuration not stated)
inactive: endpoint: mean survival time, dose: 3.13 mg/kg/injection, schedule: Q01DX009 (ip), vehicle: saline 101 % of control | endpoint: mean survival time, dose: 6.25 mg/kg/injection, schedule: Q01DX009 (ip), vehicle: saline 103 % of control | endpoint: mean survival time, dose: 6.25 mg/kg/injection, schedule: Q04DX003 (ip), vehicle: saline 101 % of control | endpoint: mean survival time, dose: 12.5 mg/kg/injection, schedule: Q01DX009 (ip), vehicle: saline 101 % of control | endpoint: mean survival time, dose: 12.5 mg/kg/injection, schedule: Q04DX003 (ip), vehicle: saline 106 % of control

CCOC(=O)Oc1c(Cl)c(Cl)c(Cl)c(Cl)c1Cl
inactive: [5] 96 % of control | [6] 96 % of control | [7] 95 % of control

CCSc1nc(N)c2ncn(C3OC(C)C(O)C(O)C3O)c2n1 (configuration not stated)
inactive: endpoint: median survival time, dose: 12.5 mg/kg/injection, schedule: Q01DX005 (ip), vehicle: saline with Tween-80 106 % of control | [1] 101 % of control | [2] 94 % of control | [3] 103 % of control | [4] 100 % of control

O=C(/C=C/c1cccnc1)/C=C/c1cccnc1
inactive: endpoint: mean survival time, dose: 6.25 mg/kg/injection, schedule: Q01DX009 (ip), vehicle: other 105 % of control | [9] 105 % of control | endpoint: mean survival time, dose: 12.5 mg/kg/injection, schedule: Q04DX003 (ip), vehicle: acetone 104 % of control | [10] 107 % of control | endpoint: mean survival time, dose: 25.0 mg/kg/injection, schedule: Q04DX003 (ip), vehicle: acetone 103 % of control | endpoint: median survival time, dose: 3.13 mg/kg/injection, schedule: Q01DX005 (ip), vehicle: Klucel (hydroxypropylcellulose) (HPC) 102 % of control | endpoint: median survival time, dose: 6.25 mg/kg/injection, schedule: Q01DX005 (ip), vehicle: Klucel (hydroxypropylcellulose) (HPC) 97 % of control | endpoint: median survival time, dose: 12.5 mg/kg/injection, schedule: Q01DX005 (ip), vehicle: Klucel (hydroxypropylcellulose) (HPC) 95 % of control | endpoint: median survival time, dose: 25.0 mg/kg/injection, schedule: Q01DX005 (ip), vehicle: Klucel (hydroxypropylcellulose) (HPC) 98 % of control | endpoint: median survival time, dose: 50.0 mg/kg/injection, schedule: Q01DX005 (ip), vehicle: Klucel (hydroxypropylcellulose) (HPC) 100 % of control

CC/C=N/NC(N)=S
inactive: endpoint: mean survival time, dose: 5.0 mg/kg/injection, schedule: Q01DX001 (ip), vehicle: saline 98 % of control | endpoint: mean survival time, dose: 10.0 mg/kg/injection, schedule: Q01DX001 (ip), vehicle: saline 102 % of control | endpoint: mean survival time, dose: 20.0 mg/kg/injection, schedule: Q01DX001 (ip), vehicle: saline 106 % of control

Cc1cc(C)c2nc(N)sc2c1
inactive: endpoint: mean survival time, dose: 25.0 mg/kg/injection, schedule: Q04DX002 (ip), vehicle: saline with Tween-80 96 % of control | endpoint: mean survival time, dose: 50.0 mg/kg/injection, schedule: Q04DX002 (ip), vehicle: saline with Tween-80 93 % of control | [8] 93 % of control

CCC(CCC(C)C1CCC2C3CC=C4CC(OC(=O)CCC(=O)O)CCC4(C)C3CCC12C)C(C)C (configuration not stated)
inactive: [5] 90 % of control | [6] 90 % of control | [7] 93 % of control

O=C(O)c1cccc2c1-c1c(cccc1[N+](=O)[O-])C2
inactive: endpoint: mean survival time, dose: 50.0 mg/kg/injection, schedule: Q01DX009 (ip), vehicle: saline with Tween-80 96 % of control | endpoint: mean survival time, dose: 100.0 mg/kg/injection, schedule: Q01DX009 (ip), vehicle: saline with Tween-80 97 % of control | [5] 101 % of control | endpoint: mean survival time, dose: 200.0 mg/kg/injection, schedule: Q01DX009 (ip), vehicle: saline with Tween-80 91 % of control | [6] 100 % of control

O=c1cn[nH]c2c(F)cccc12
inactive: endpoint: mean survival time, dose: 100.0 mg/kg/injection, schedule: Q01DX001 (ip), vehicle: other 97 % of control | endpoint: mean survival time, dose: 200.0 mg/kg/injection, schedule: Q01DX001 (ip), vehicle: other 104 % of control | endpoint: mean survival time, dose: 400.0 mg/kg/injection, schedule: Q01DX001 (ip), vehicle: other 98 % of control

O=C(Nc1ncccn1)Nc1cc([N+](=O)[O-])ccc1F
inactive: endpoint: mean survival time, dose: 50.0 mg/kg/injection, schedule: Q01DX009 (ip), vehicle: Klucel (hydroxypropylcellulose) (HPC) 93 % of control | endpoint: mean survival time, dose: 100.0 mg/kg/injection, schedule: Q01DX009 (ip), vehicle: Klucel (hydroxypropylcellulose) (HPC) 96 % of control | endpoint: mean survival time, dose: 200.0 mg/kg/injection, schedule: Q01DX009 (ip), vehicle: Klucel (hydroxypropylcellulose) (HPC) 98 % of control

CC(C)OC(=S)S
inactive: endpoint: mean survival time, dose: 100.0 mg/kg/injection, schedule: Q01DX009 (ip), vehicle: saline 101 % of control | endpoint: mean survival time, dose: 100.0 mg/kg/injection, schedule: Q04DX003 (ip), vehicle: saline 100 % of control | endpoint: mean survival time, dose: 200.0 mg/kg/injection, schedule: Q01DX009 (ip), vehicle: saline 102 % of control | endpoint: mean survival time, dose: 200.0 mg/kg/injection, schedule: Q04DX003 (ip), vehicle: saline 97 % of control | endpoint: mean survival time, dose: 400.0 mg/kg/injection, schedule: Q01DX009 (ip), vehicle: saline 107 % of control | endpoint: mean survival time, dose: 400.0 mg/kg/injection, schedule: Q04DX003 (ip), vehicle: saline 88 % of control

COc1cc(C=C2C(=O)C=CC2=O)ccc1O
inactive: endpoint: mean survival time, dose: 3.13 mg/kg/injection, schedule: Q04DX002 (ip), vehicle: saline with Tween-80 108 % of control | endpoint: mean survival time, dose: 6.25 mg/kg/injection, schedule: Q04DX002 (ip), vehicle: saline with Tween-80 100 % of control | endpoint: mean survival time, dose: 12.5 mg/kg/injection, schedule: Q04DX002 (ip), vehicle: saline with Tween-80 106 % of control

OC(c1ccccc1)(c1ccccc1)c1ccc(CN2CCOCC2)cc1
inactive: [9] 101 % of control | [10] 98 % of control | endpoint: mean survival time, dose: 50.0 mg/kg/injection, schedule: Q01DX009 (ip), vehicle: other 93 % of control | endpoint: mean survival time, dose: 100.0 mg/kg/injection, schedule: Q01DX009 (ip), vehicle: other 90 % of control | endpoint: mean survival time, dose: 200.0 mg/kg/injection, schedule: Q01DX009 (ip), vehicle: other 98 % of control

CCCCNC(=O)C1C=C2c3cccc4c3C(CN4)CC2N(C)C1 (configuration not stated)
inactive: endpoint: mean survival time, dose: 50.0 mg/kg/injection, schedule: Q04DX003 (ip), vehicle: saline with Tween-80 88 % of control | [5] 91 % of control | [6] 96 % of control

O=NN(CCCCCSCCCl)C(=O)NC1CCCCC1
inactive: endpoint: mean survival time, dose: 6.25 mg/kg/injection, schedule: Q01DX001 (ip), vehicle: distilled water + Tween-80 101 % of control | endpoint: mean survival time, dose: 12.5 mg/kg/injection, schedule: Q01DX001 (ip), vehicle: distilled water + Tween-80 101 % of control | endpoint: mean survival time, dose: 25.0 mg/kg/injection, schedule: Q01DX001 (ip), vehicle: distilled water + Tween-80 107 % of control | endpoint: mean survival time, dose: 50.0 mg/kg/injection, schedule: Q01DX001 (ip), vehicle: distilled water + Tween-80 104 % of control | endpoint: mean survival time, dose: 100.0 mg/kg/injection, schedule: Q01DX001 (ip), vehicle: distilled water + Tween-80 104 % of control | endpoint: mean survival time, dose: 200.0 mg/kg/injection, schedule: Q01DX001 (ip), vehicle: distilled water + Tween-80 108 % of control | endpoint: mean survival time, dose: 400.0 mg/kg/injection, schedule: Q01DX001 (ip), vehicle: distilled water + Tween-80 118 % of control

From PubChem BioAssay AID256 (DTP/NCI, 2004)
